Measured values from patent US9340590B2 (priority 2011, dated 2016).
Read-outs that look alike come from different tables or passages of the source. Positions of bridges follow the written chain, without caps; N, C: chain ends. Non-standard residues stand in square brackets, D forms with d. Residues, ends and D or L forms follow the SMILES beside them. 1Nal = N[C@@H](Cc1cccc2ccccc12)C(=O)O

Experiments:
Experiment in all cases: cell-based
hNav1.7 = hNav1.7 (Homo sapiens, UniProt Q15858); assay type: cell-based
Sequence of hNav1.7 (Q15858 whole entry, looked up): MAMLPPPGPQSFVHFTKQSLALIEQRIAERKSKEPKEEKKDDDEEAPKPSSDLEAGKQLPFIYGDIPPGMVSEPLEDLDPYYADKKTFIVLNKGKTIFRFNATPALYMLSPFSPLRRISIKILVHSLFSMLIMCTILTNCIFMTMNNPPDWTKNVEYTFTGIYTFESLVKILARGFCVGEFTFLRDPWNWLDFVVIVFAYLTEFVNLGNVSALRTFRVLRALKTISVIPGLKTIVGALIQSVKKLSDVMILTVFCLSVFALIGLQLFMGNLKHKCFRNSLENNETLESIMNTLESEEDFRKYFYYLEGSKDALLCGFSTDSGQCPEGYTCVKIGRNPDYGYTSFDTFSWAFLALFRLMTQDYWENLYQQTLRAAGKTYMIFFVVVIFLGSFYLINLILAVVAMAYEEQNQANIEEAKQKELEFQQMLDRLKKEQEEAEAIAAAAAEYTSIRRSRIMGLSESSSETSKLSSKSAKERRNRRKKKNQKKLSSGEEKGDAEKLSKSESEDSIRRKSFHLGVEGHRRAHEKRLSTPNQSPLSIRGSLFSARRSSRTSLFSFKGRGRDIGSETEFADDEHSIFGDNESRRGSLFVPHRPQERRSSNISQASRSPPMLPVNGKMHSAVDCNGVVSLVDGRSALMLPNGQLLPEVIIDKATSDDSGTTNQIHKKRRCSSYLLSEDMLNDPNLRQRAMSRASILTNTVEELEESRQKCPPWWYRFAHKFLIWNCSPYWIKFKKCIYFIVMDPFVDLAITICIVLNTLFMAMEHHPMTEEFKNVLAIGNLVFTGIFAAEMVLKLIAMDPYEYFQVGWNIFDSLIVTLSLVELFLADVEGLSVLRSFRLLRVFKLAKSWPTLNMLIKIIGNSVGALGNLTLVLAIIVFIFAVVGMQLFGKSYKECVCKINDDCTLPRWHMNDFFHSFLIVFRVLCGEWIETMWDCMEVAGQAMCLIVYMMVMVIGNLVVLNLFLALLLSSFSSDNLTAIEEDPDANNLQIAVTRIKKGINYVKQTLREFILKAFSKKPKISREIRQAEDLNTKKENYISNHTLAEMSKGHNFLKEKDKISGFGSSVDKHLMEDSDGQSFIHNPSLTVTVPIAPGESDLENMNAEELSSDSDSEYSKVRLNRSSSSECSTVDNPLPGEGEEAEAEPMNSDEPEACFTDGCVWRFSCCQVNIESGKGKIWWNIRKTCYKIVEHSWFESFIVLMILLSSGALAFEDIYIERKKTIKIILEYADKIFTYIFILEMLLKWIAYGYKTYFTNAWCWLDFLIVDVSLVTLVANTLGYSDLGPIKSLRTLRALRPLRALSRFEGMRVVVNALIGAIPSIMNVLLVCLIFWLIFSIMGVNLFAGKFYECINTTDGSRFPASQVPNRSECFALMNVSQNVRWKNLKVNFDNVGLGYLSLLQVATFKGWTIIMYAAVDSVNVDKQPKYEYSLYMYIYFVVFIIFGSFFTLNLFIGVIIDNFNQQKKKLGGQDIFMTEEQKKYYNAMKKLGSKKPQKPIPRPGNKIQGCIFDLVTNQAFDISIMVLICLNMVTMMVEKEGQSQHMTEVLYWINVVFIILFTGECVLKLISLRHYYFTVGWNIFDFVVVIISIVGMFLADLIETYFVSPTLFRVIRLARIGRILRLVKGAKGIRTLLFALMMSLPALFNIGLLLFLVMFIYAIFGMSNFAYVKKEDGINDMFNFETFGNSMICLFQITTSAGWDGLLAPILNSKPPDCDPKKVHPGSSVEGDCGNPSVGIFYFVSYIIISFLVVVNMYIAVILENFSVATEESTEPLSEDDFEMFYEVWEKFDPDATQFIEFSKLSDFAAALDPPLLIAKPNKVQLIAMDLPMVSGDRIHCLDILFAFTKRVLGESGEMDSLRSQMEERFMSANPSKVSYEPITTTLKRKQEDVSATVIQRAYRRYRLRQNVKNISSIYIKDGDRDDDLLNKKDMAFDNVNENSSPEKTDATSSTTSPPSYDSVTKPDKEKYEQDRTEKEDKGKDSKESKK

hNav1.5 = hNav1.5 (Homo sapiens, UniProt Q14524)
Sequence of hNav1.5 (Q14524 whole entry, looked up): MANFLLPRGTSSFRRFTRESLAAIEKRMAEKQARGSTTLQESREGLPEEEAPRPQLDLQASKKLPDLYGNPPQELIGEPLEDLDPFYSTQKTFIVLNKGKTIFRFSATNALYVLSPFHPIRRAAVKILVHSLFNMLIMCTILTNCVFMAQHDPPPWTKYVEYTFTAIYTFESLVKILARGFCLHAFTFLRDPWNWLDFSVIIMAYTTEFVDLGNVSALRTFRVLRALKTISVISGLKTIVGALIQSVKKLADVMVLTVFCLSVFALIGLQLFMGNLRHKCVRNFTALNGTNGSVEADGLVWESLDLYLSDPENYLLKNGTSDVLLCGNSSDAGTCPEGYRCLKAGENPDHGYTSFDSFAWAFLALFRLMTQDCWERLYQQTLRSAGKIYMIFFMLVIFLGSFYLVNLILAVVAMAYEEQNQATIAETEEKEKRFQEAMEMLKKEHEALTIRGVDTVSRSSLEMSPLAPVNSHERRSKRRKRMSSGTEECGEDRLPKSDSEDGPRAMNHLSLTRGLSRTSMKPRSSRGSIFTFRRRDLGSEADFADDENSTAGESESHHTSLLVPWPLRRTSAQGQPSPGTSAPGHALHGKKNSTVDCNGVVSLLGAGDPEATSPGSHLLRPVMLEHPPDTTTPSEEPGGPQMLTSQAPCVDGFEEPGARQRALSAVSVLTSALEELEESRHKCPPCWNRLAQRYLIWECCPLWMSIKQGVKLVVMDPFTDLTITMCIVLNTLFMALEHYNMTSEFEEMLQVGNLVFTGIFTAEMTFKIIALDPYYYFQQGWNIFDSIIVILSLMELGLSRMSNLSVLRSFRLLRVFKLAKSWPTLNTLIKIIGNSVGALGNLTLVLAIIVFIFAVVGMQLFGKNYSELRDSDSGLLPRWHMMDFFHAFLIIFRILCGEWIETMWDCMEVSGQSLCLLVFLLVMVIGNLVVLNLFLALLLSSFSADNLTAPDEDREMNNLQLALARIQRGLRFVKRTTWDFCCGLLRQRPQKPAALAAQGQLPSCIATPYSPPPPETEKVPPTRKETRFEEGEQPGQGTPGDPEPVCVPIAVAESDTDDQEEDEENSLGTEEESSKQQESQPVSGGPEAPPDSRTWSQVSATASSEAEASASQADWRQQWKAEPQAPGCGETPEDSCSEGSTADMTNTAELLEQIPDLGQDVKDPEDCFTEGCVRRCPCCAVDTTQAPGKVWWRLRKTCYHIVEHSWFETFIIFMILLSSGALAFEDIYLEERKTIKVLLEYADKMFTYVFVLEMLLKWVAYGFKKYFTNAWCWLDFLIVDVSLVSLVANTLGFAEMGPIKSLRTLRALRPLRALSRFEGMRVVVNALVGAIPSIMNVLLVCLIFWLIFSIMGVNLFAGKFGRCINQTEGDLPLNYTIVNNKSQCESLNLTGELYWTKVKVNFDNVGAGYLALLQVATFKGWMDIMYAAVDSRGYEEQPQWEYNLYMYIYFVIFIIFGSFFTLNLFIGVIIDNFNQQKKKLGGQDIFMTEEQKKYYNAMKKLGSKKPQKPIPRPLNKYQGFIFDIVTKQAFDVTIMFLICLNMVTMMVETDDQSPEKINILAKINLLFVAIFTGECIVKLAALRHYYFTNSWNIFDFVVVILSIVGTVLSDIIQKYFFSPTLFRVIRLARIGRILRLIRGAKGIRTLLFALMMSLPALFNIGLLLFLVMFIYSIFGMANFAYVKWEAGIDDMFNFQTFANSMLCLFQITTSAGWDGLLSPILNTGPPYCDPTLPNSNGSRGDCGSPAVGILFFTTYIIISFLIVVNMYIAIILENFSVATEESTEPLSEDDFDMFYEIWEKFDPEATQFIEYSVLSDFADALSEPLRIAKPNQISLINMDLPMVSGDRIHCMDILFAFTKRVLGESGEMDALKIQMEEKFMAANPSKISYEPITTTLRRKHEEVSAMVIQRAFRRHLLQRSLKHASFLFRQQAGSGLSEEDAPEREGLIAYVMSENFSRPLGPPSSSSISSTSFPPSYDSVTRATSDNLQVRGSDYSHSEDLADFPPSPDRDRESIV

hNav1.3 = hNav1.3 (Homo sapiens, UniProt Q9NY46); settings: IonWorks Quattro, read-out: IWQ Use Nav1.3
[1] = IonWorks Quattro, Use, read-out: IWQ Use Nav1.7
[2] = IonWorks Quattro, Use, read-out: IWQ Use Nav1.5

| SMILES | IC50 (hNav1.7; [1]) [µM] | IC50 (hNav1.5; [2]) [µM] | IC50 (hNav1.3; Use) [µM] | further results |
| --- | --- | --- | --- | --- |
| CC[C@H](C)[C@@H]1NC(=O)[C@@H]2CSSC[C@@H]3NC(=O)[C@H](C(C)C)NC(=O)[C@H](CC(C)C)NC(=O)[C@H](CC(N)=O)NC(=O)[C@@H]4CCCN4C(=O)[C@H](CCCNC(=N)N)NC(=O)[C@H](CSSC[C@H](NC(=O)[C@@H](N)CC(=O)O)C(=O)N[C@@H](CC(C)C)C(=O)NCC(=O)N[C@@H](Cc4ccccc4)C(=O)N[C@@H](CCSC)C(=O)N[C@@H](CCCNC(=N)N)C(=O)N[C@@H](CCCCN)C(=O)N2)NC(=O)[C@H](CSSC[C@@H](C(=O)N[C@@H](CCCCN)C(=O)N[C@@H](Cc2ccc(O)cc2)C(=O)N[C@H](C(=O)N[C@@H](Cc2ccccc2)C(N)=O)C(C)C)NC(=O)[C@H](Cc2c[nH]c4ccccc24)NC(=O)[C@H](CCCCN)NC(=O)[C@H](Cc2c[nH]cn2)NC(=O)[C@H]([C@@H](C)O)NC(=O)[C@H](CCCNC(=N)N)NC(=O)[C@H](CO)NC3=O)NC(=O)[C@H](CCCCN)NC(=O)[C@H](CC(=O)O)NC(=O)[C@H](CC(N)=O)NC(=O)[C@H](Cc2cccc3ccccc23)NC(=O)[C@@H]2CCCN2C1=O [compound 162] (H-DCLGFMRKCIP[1Nal]NDKCCRPNLVCSRTHKWCKYVF-NH2; disulfide 2-17, 9-23, 16-30) | 0.06 | 9.88 | 0.04 | – |
| CC[C@H](C)[C@@H]1NC(=O)[C@@H]2CSSC[C@@H]3NC(=O)[C@H](C(C)C)NC(=O)[C@H](CC(C)C)NC(=O)[C@H](CC(N)=O)NC(=O)[C@@H]4CCCN4C(=O)[C@H](CCCNC(=N)N)NC(=O)[C@H](CSSC[C@H](NC(=O)[C@@H](N)CC(=O)O)C(=O)N[C@@H](CC(C)C)C(=O)NCC(=O)N[C@@H](Cc4ccccc4)C(=O)N[C@@H](CCSC)C(=O)N[C@@H](CCCNC(=N)N)C(=O)N[C@@H](CCCCN)C(=O)N2)NC(=O)[C@H](CSSC[C@@H](C(=O)N[C@@H](CCCCN)C(=O)N[C@@H](Cc2ccc(O)cc2)C(=O)N[C@H](C(=O)N[C@@H](Cc2ccccc2)C(N)=O)C(C)C)NC(=O)[C@H](Cc2c[nH]c4ccccc24)NC(=O)[C@H](CCCCN)NC(=O)[C@H](Cc2c[nH]cn2)NC(=O)[C@H]([C@@H](C)O)NC(=O)[C@H](CCCNC(=N)N)NC(=O)[C@H](CO)NC3=O)NC(=O)[C@H](CCCCN)NC(=O)[C@H](CC(=O)O)NC(=O)[C@H](Cc2cccc3ccccc23)NC(=O)[C@H](CC(=O)O)NC(=O)[C@@H]2CCCN2C1=O [compound 163] (H-DCLGFMRKCIPD[1Nal]DKCCRPNLVCSRTHKWCKYVF-NH2; disulfide 2-17, 9-23, 16-30) | 0.11 | 8.27 | 0.09 | – |
| CC[C@H](C)[C@@H]1NC(=O)[C@@H]2CSSC[C@@H]3NC(=O)[C@H](C(C)C)NC(=O)[C@H](Cc4cccc5ccccc45)NC(=O)[C@H](CC(N)=O)NC(=O)[C@@H]4CCCN4C(=O)[C@H](CCCNC(=N)N)NC(=O)[C@H](CSSC[C@H](NC(=O)[C@@H](N)CC(=O)O)C(=O)N[C@@H](CC(C)C)C(=O)NCC(=O)N[C@@H](Cc4ccccc4)C(=O)N[C@@H](CCSC)C(=O)N[C@@H](CCCNC(=N)N)C(=O)N[C@@H](CCCCN)C(=O)N2)NC(=O)[C@H](CSSC[C@@H](C(=O)N[C@@H](CCCCN)C(=O)N[C@@H](Cc2ccc(O)cc2)C(=O)N[C@H](C(=O)N[C@@H](Cc2ccccc2)C(N)=O)C(C)C)NC(=O)[C@H](Cc2c[nH]c4ccccc24)NC(=O)[C@H](CCCCN)NC(=O)[C@H](Cc2c[nH]cn2)NC(=O)[C@H]([C@@H](C)O)NC(=O)[C@H](CCCNC(=N)N)NC(=O)[C@H](CO)NC3=O)NC(=O)[C@H](CCCCN)NC(=O)[C@H](CC(=O)O)NC(=O)[C@H](CC(N)=O)NC(=O)[C@H](CC(=O)O)NC(=O)[C@@H]2CCCN2C1=O [compound 165] (H-DCLGFMRKCIPDNDKCCRPN[1Nal]VCSRTHKWCKYVF-NH2; disulfide 2-17, 9-23, 16-30) | – | 10.6 | 0.09 | IC50 (hNav1.7): 0.08 µM |
| CC[C@H](C)[C@@H]1NC(=O)[C@@H]2CSSC[C@@H]3NC(=O)[C@H](C(C)C)NC(=O)[C@H](CC(C)C)NC(=O)[C@H](CC(N)=O)NC(=O)[C@@H]4CCCN4C(=O)[C@H](CCCNC(=N)N)NC(=O)[C@H](CSSC[C@H](NC(=O)[C@@H](N)CC(=O)O)C(=O)N[C@@H](CC(C)C)C(=O)NCC(=O)N[C@@H](Cc4ccccc4)C(=O)N[C@@H](CCSC)C(=O)N[C@@H](CCCNC(=N)N)C(=O)N[C@@H](CCCCN)C(=O)N2)NC(=O)[C@H](CSSC[C@@H](C(=O)N[C@@H](CCCCN)C(=O)N[C@@H](Cc2ccc(O)cc2)C(=O)N[C@H](C(=O)N[C@@H](Cc2ccccc2)C(N)=O)C(C)C)NC(=O)[C@H](Cc2c[nH]c4ccccc24)NC(=O)[C@H](CCCCN)NC(=O)[C@H](Cc2cccc4ccccc24)NC(=O)[C@H]([C@@H](C)O)NC(=O)[C@H](CCCNC(=N)N)NC(=O)[C@H](CO)NC3=O)NC(=O)[C@H](CCCCN)NC(=O)[C@H](CC(=O)O)NC(=O)[C@H](CC(N)=O)NC(=O)[C@H](CC(=O)O)NC(=O)[C@@H]2CCCN2C1=O [compound 166] (H-DCLGFMRKCIPDNDKCCRPNLVCSRT[1Nal]KWCKYVF-NH2; disulfide 2-17, 9-23, 16-30) | – | – | – | IC50 (hNav1.7; Table 23, IonWorks Quattro, use, […], read-out: IWQ Use Nav1.7): 0.3 µM; IC50 (hNav1.5; Table 23, IonWorks Quattro, use, […], read-out: IWQ Use Nav1.5): 0.88 µM; IC50 (hNav1.3; Table 23, use, […]): 0.43 µM |
| CC[C@H](C)[C@@H]1NC(=O)[C@@H]2CSSC[C@@H]3NC(=O)[C@H](C(C)C)NC(=O)[C@H](CC(C)C)NC(=O)[C@H](CC(N)=O)NC(=O)[C@@H]4CCCN4C(=O)[C@H](CCCNC(=N)N)NC(=O)[C@H](CSSC[C@H](NC(=O)[C@@H](N)CC(=O)O)C(=O)N[C@@H](CC(C)C)C(=O)NCC(=O)N[C@@H](Cc4ccccc4)C(=O)N[C@@H](CCSC)C(=O)N[C@@H](CCCNC(=N)N)C(=O)N[C@@H](CCCCN)C(=O)N2)NC(=O)[C@H](CSSC[C@@H](C(=O)N[C@@H](CCCCN)C(=O)N[C@@H](Cc2ccc(O)cc2)C(=O)N[C@@H](Cc2cccc4ccccc24)C(=O)N[C@@H](Cc2ccccc2)C(N)=O)NC(=O)[C@H](Cc2c[nH]c4ccccc24)NC(=O)[C@H](CCCCN)NC(=O)[C@H](Cc2cnc[nH]2)NC(=O)[C@H]([C@@H](C)O)NC(=O)[C@H](CCCNC(=N)N)NC(=O)[C@H](CO)NC3=O)NC(=O)[C@H](CCCCN)NC(=O)[C@H](CC(=O)O)NC(=O)[C@H](CC(N)=O)NC(=O)[C@H](CC(=O)O)NC(=O)[C@@H]2CCCN2C1=O [compound 168] (H-DCLGFMRKCIPDNDKCCRPNLVCSRTHKWCKY[1Nal]F-NH2; disulfide 2-17, 9-23, 16-30) | – | – | – | IC50 (hNav1.7; Table 26, IonWorks Quattro, use, […], read-out: IWQ Use Nav1.7): 0.06 µM; IC50 (hNav1.5; IWQ Use Nav1.5 (μM)): 15.7 µM; IC50 (hNav1.3; Table 26, use, […]): 0.02 µM |
| CC[C@H](C)[C@@H]1NC(=O)[C@@H]2CSSC[C@@H]3NC(=O)[C@H](C(C)C)NC(=O)[C@H](CC(C)C)NC(=O)[C@H](CC(N)=O)NC(=O)[C@@H]4CCCN4C(=O)[C@H](CCCNC(=N)N)NC(=O)[C@H](CSSC[C@H](NC(=O)[C@@H](N)CC(=O)O)C(=O)N[C@@H](CC(C)C)C(=O)NCC(=O)N[C@@H](Cc4ccccc4)C(=O)N[C@@H](CCSC)C(=O)N[C@@H](CCCNC(=N)N)C(=O)N[C@@H](CCCCN)C(=O)N2)NC(=O)[C@H](CSSC[C@@H](C(=O)N[C@@H](CCCCN)C(=O)N[C@@H](Cc2ccc(O)cc2)C(=O)N[C@H](C(=O)N[C@@H](Cc2ccccc2)C(N)=O)C(C)C)NC(=O)[C@H](Cc2c[nH]c4ccccc24)NC(=O)[C@H](CCCCN)NC(=O)[C@H](Cc2cnc[nH]2)NC(=O)[C@H]([C@@H](C)O)NC(=O)[C@H](CCCNC(=N)N)NC(=O)[C@H](CO)NC3=O)NC(=O)[C@H](CCCCN)NC(=O)[C@H](CC(=O)O)NC(=O)[C@H](CC(N)=O)NC(=O)[C@H](Cc2c[nH]c3ccccc23)NC(=O)[C@@H]2CCCN2C1=O [compound 172] (H-DCLGFMRKCIPWNDKCCRPNLVCSRTHKWCKYVF-NH2; disulfide 2-17, 9-23, 16-30) | 0.05 | 8.04 | 0.04 | – |
| CC[C@H](C)[C@@H]1NC(=O)[C@@H]2CSSC[C@@H]3NC(=O)[C@H](C(C)C)NC(=O)[C@H](CC(C)C)NC(=O)[C@H](CC(N)=O)NC(=O)[C@@H]4CCCN4C(=O)[C@H](CCCNC(=N)N)NC(=O)[C@H](CSSC[C@H](NC(=O)[C@@H](N)CC(=O)O)C(=O)N[C@@H](CC(C)C)C(=O)NCC(=O)N[C@@H](Cc4ccccc4)C(=O)N[C@@H](CCSC)C(=O)N[C@@H](CCCNC(=N)N)C(=O)N[C@@H](CCCCN)C(=O)N2)NC(=O)[C@H](CSSC[C@@H](C(=O)N[C@@H](CCCCN)C(=O)N[C@@H](Cc2ccc(O)cc2)C(=O)N[C@H](C(=O)N[C@@H](Cc2ccccc2)C(N)=O)C(C)C)NC(=O)[C@H](Cc2c[nH]c4ccccc24)NC(=O)[C@H](CCCCN)NC(=O)[C@H](Cc2cnc[nH]2)NC(=O)[C@H]([C@@H](C)O)NC(=O)[C@H](CCCNC(=N)N)NC(=O)[C@H](CO)NC3=O)NC(=O)[C@H](CCCCN)NC(=O)[C@H](CC(=O)O)NC(=O)[C@H](Cc2c[nH]c3ccccc23)NC(=O)[C@H](CC(=O)O)NC(=O)[C@@H]2CCCN2C1=O [compound 173] (H-DCLGFMRKCIPDWDKCCRPNLVCSRTHKWCKYVF-NH2; disulfide 2-17, 9-23, 16-30) | 0.09 | 17.3 | 0.05 | – |
